Experimental data published in US20210207099A1, “METHODS AND COMPOSITIONS FOR GENERATING CELLS OF ENDODERMAL LINEAGE AND BETA CELLS AND USES THEREOF” (priority 2018, published 2021).

How the values were obtained:
[1] = system: F-actin; experiment: F-actin staining and G/F actin ratio by western blot; format: cell-based, human; settings: 1 μM for 24 hours, plated stage 4 cells
Protocol: Brightfield images were taken with a Leica DMi1 inverted light microscope, and fluorescence images were captured with a Nikon A1Rsi confocal microscope. For immunostaining, cells were fixed with 4% paraformaldehyde (PFA) at room temperature for 30 minutes. They were then blocked and permeabilized for 45 minutes at room temperature with an immunocytochemistry (ICC) solution consisting of 0.1% triton X (Acros Organics, 327371000) and 5% donkey serum (Jackson Immunoresearch, 017000-121) in PBS (Corning, 21-040-CV). Samples were then incubated with primary antibodies diluted in ICC solution overnight at 4° C., washed with ICC, incubated with secondary antibodies diluted in ICC for 2 hours at room temperature, and stained with DAPI for 15 minutes at room temperature. For histological sectioning, whole SC-β cell clusters generated with the planar protocol and mouse kidneys containing transplanted cells were fixed overnight with 4% PFA at 4° C. The in vitro clusters were also embedded in Histogel (Thermo Scientific, hg-4000-012). These samples were then paraffin-embedded and sectioned by the Division of Comparative Medicine (DCM) Research Animal Diagnostic Laboratory Core at Washington University in St. Louis. Paraffin was removed from sectioned samples with Histoclear (Thermo Scientific, C78-2-G), and antigen retrieval was carried out in a pressure cooker (Proteogenix, 2100 Retriever) with 0.05 M EDTA (Ambion, AM9261). Slides were blocked and permeabilized with ICC solution for 45 minutes, incubated with primary antibodies in ICC solution overnight at 4° C., and incubated with secondary antibodies for 2 hours at room temperature. Slides were then sealed with DAPI Fluoromount-G (SouthernBiotech, 0100-20).
G/F actin ratio was determined by western blot following the instructions of the G-actin/F-actin In Vivo Assay Kit (Cytoskeleton, Inc, BK037). Western blot was visualized using SuperSignal West Pico PLUS Chemiluminescent substrate (ThermoScientific, 34577) and the Odyssey FC (LI-COR) imager.

[2] = system: plated cells of the SC-β cell protocol; experiment: Bulk RNA sequencing at stage 6 of plated cells treated with latrunculin A; format: cell-based, human
Protocol: Cells generated with the suspension protocol were single-cell dispersed from clusters with TrypLE at the end of stage 3 and seeded onto collagen 1 coated 24-well plates at 0.625×10^6 cells/cm^2. Either 0.5 μM latrunculin A was added throughout the entirety of stage 4 or 1 μM latrunculin A was added for the first 24 hours of stage 5. After two weeks in stage 6, RNA was extracted with the RNeasy Mini Kit (Qiagen, 74016), including a DNase treatment (Qiagen, 79254) during extraction. Samples were delivered to Washington University in St. Louis Genome Technology Access Center for library preparation and sequencing. Samples were prepared by RNA depletion using Ribo-Zero according to library kit manufacturer's protocol, indexed, pooled, and sequenced on an Illumine HiSeq.
Differential gene expression analysis was performed using EdgeR. DGEList was used to create the count object and normalized the data using the trimmed mean M-values (TMM) method with calcNormFactors. Pairwise comparisons were performed using exactTest and used topTags to obtain differentially expressed genes and their respective log fold change (log FC) and adjusted p-value (FDR). These values were used to generate volcano plots using ggplot2. Hierarchical clustering and heatmaps were performed and generated with heatmap.2 (gplots) using log CPM calculated expression levels. […]

Compound: C/C1=C/C(=O)O[C@@H]2C[C@@H](CC[C@H](C)/C=C\C=C\CC1)O[C@@](O)([C@@H]1CSC(=O)N1)C2 [latrunculin A]
- F-actin polymerization state [1]: almost complete depolymerization of F-actin
- G/F-actin ratio [1]: increased G/F-actin ratio
- PDX1 expression by immunostaining [1]: maintenance of PDX1 expression
- gene expression profile at stage 6 ([2]; 0.5 μM throughout stage 4): increasing intestine and stomach gene expression
- gene expression profile at stage 6 ([2]; 1 μM for the first 24 hours of stage 5): increasing expression of β cell and islet genes
